Where “and” joins values, the source holds several entries; their conditions need not be identical. Equal values may be shown once. Toxic doses and inconclusive results are not listed. Cut-off read from the data, not from the text of the source: active = T/C of 150% or more; inactive = T/C below 125%.
Tested on: L1210 leukemia ip in BDF1 mice, survival T/C
Assay: NCI In Vivo Anticancer Drug Screen. Data for tumor model L1210 Leukemia (intraperitoneal) in B6D2F1 (BDF1) mice
Details: endpoint: mean survival time, higher = longer survival
In short: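 Each compound was tested against a transplantable tumor grown in mice. The endpoint was survival, with treated animals benchmarked against vehicle controls as a simple ratio.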

[1] = dose: 100.0 mg/kg/injection, schedule: Q01DX009 (ip), vehicle: Klucel (hydroxypropylcellulose) (HPC)
[2] = dose: 200.0 mg/kg/injection, schedule: Q01DX009 (ip), vehicle: Klucel (hydroxypropylcellulose) (HPC)
[3] = dose: 50.0 mg/kg/injection, schedule: Q01DX009 (ip), vehicle: saline
[4] = dose: 100.0 mg/kg/injection, schedule: Q04DX003 (ip), vehicle: saline with Tween-80
[5] = dose: 100.0 mg/kg/injection, schedule: Q01DX009 (ip), vehicle: saline with Tween-80
[6] = dose: 200.0 mg/kg/injection, schedule: Q01DX009 (ip), vehicle: saline with Tween-80
[7] = dose: 400.0 mg/kg/injection, schedule: Q01DX009 (ip), vehicle: saline with Tween-80
[8] = dose: 12.5 mg/kg/injection, schedule: Q01DX009 (ip), vehicle: saline with Tween-80
[9] = dose: 50.0 mg/kg/injection, schedule: Q01DX009 (ip), vehicle: saline with Tween-80

Measured: T/C

CCOC(=O)Nc1nc(Cl)c(Cl)nc1Cl
inactive: dose: 25.0 mg/kg/injection, schedule: Q01DX009 (ip), vehicle: water 93 % of control | dose: 50.0 mg/kg/injection, schedule: Q01DX009 (ip), vehicle: water 102 % of control | dose: 100.0 mg/kg/injection, schedule: Q01DX009 (ip), vehicle: water 98 % of control | dose: 200.0 mg/kg/injection, schedule: Q01DX009 (ip), vehicle: water 91 % of control | dose: 400.0 mg/kg/injection, schedule: Q01DX009 (ip), vehicle: water 96 % of control

O=C(Nc1cccc(F)c1)SCc1ccccc1
inactive: dose: 100.0 mg/kg/injection, schedule: Q01DX009 (ip), vehicle: gum acacia 90 % of control | dose: 200.0 mg/kg/injection, schedule: Q01DX009 (ip), vehicle: gum acacia 90 % of control | dose: 400.0 mg/kg/injection, schedule: Q01DX009 (ip), vehicle: gum acacia 98 % of control

CC(C)=CCCC(=O)NC(=O)NS(=O)(=O)c1ccc(Cl)cc1
inactive: dose: 50.0 mg/kg/injection, schedule: Q01DX009 (ip), vehicle: Klucel (hydroxypropylcellulose) (HPC) 109 % of control | [1] 100 % of control | [2] 96 % of control

N#CC1(C(N)=O)OC12CCS(=O)(=O)c1ccccc12 (stereo not given)
inactive: dose: 100.0 mg/kg/injection, schedule: Q01DX001 (ip), vehicle: saline 87 % of control | dose: 200.0 mg/kg/injection, schedule: Q01DX001 (ip), vehicle: saline 94 % of control

COC1(NC(=O)CCCC(N)C(=O)O)C(=O)N2C(C(=O)O)=C(COC(N)=O)CSC21 (stereo not given)
inactive: dose: 100.0 mg/kg/injection, schedule: Q04DX002 (ip), vehicle: saline 103 % of control | dose: 200.0 mg/kg/injection, schedule: Q04DX002 (ip), vehicle: saline 122 % of control | dose: 400.0 mg/kg/injection, schedule: Q04DX002 (ip), vehicle: saline 107 % of control

CC(=O)OC1C(OCc2ccccc2)OC(COCc2ccccc2)C(OC2OC(COCc3ccccc3)C(OCc3ccccc3)C(OCc3ccccc3)C2OCc2ccccc2)C1OCc1ccccc1 (stereo not given)
inactive: dose: 5.31 mg/kg/injection, schedule: Q01DX009 (ip), vehicle: Klucel (hydroxypropylcellulose) (HPC) 97 % of control | dose: 10.62 mg/kg/injection, schedule: Q01DX009 (ip), vehicle: Klucel (hydroxypropylcellulose) (HPC) 94 % of control | dose: 12.5 mg/kg/injection, schedule: Q04DX003 (ip), vehicle: Klucel (hydroxypropylcellulose) (HPC) 87 % of control and 92 % of control | dose: 21.25 mg/kg/injection, schedule: Q01DX009 (ip), vehicle: Klucel (hydroxypropylcellulose) (HPC) 94 % of control | dose: 25.0 mg/kg/injection, schedule: Q04DX003 (ip), vehicle: Klucel (hydroxypropylcellulose) (HPC) 87 % of control | dose: 50.0 mg/kg/injection, schedule: Q04DX003 (ip), vehicle: Klucel (hydroxypropylcellulose) (HPC) 87 % of control and 88 % of control | dose: 75.0 mg/kg/injection, schedule: Q04DX003 (ip), vehicle: other 91 % of control | dose: 85.0 mg/kg/injection, schedule: Q01DX009 (ip), vehicle: Klucel (hydroxypropylcellulose) (HPC) 86 % of control | dose: 115.0 mg/kg/injection, schedule: Q04DX003 (ip), vehicle: other 91 % of control | dose: 170.0 mg/kg/injection, schedule: Q04DX003 (ip), vehicle: other 93 % of control

CC(Cc1ccccc1)NCCn1cnc2c1c(=O)n(C)c(=O)n2C (stereo not given)
inactive: dose: 6.25 mg/kg/injection, schedule: Q01DX009 (ip), vehicle: saline 94 % of control | dose: 12.5 mg/kg/injection, schedule: Q01DX009 (ip), vehicle: saline 98 % of control | dose: 25.0 mg/kg/injection, schedule: Q01DX009 (ip), vehicle: saline 94 % of control | [3] 102 % of control

NC(CO)C(O)c1ccc(N=Nc2ccc(O)cc2)cc1 (stereo not given)
inactive: [4] 90 % of control

O=C(Nc1cccnc1)c1cccc([N+](=O)[O-])c1
inactive: dose: 200.0 mg/kg/injection, schedule: Q04DX002 (ip), vehicle: Klucel (hydroxypropylcellulose) (HPC) 108 % of control | dose: 400.0 mg/kg/injection, schedule: Q04DX002 (ip), vehicle: Klucel (hydroxypropylcellulose) (HPC) 97 % of control

O=C(NC1CCOC1=O)OCc1ccccc1 (stereo not given)
inactive: [5] 94 % of control | [4] 95 % of control | [6] 95 % of control | dose: 200.0 mg/kg/injection, schedule: Q04DX003 (ip), vehicle: saline with Tween-80 91 % of control | [7] 94 % of control | dose: 400.0 mg/kg/injection, schedule: Q04DX003 (ip), vehicle: saline with Tween-80 95 % of control

CCCCCCCCCCCCCCCCNCC(=O)Nc1ccc(S(=O)(=O)c2ccc(NC(=O)CNCCCCCCCCCCCCCCCC)cc2)cc1
inactive: dose: 4.0 mg/kg/injection, schedule: Q01DX015 (ip), vehicle: carboxymethylcellulose (CMC) 94 % of control | dose: 8.0 mg/kg/injection, schedule: Q01DX015 (ip), vehicle: carboxymethylcellulose (CMC) 94 % of control | dose: 16.0 mg/kg/injection, schedule: Q01DX015 (ip), vehicle: carboxymethylcellulose (CMC) 104 % of control | dose: 32.0 mg/kg/injection, schedule: Q01DX015 (ip), vehicle: carboxymethylcellulose (CMC) 93 % of control and 101 % of control | dose: 64.0 mg/kg/injection, schedule: Q01DX015 (ip), vehicle: carboxymethylcellulose (CMC) 117 % of control | dose: 100.0 mg/kg/injection, schedule: Q01DX001 (ip), vehicle: other 89 % of control | dose: 200.0 mg/kg/injection, schedule: Q01DX001 (ip), vehicle: other 100 % of control

O=[N+]([O-])c1ccc(Cl)c2ccccc12
inactive: [8] 94 % of control | dose: 25.0 mg/kg/injection, schedule: Q01DX009 (ip), vehicle: saline with Tween-80 91 % of control | [9] 87 % of control | [5] 91 % of control | [6] 88 % of control

Cc1cccc(C(=O)NCC(=O)O)c1
inactive: [3] 98 % of control | dose: 100.0 mg/kg/injection, schedule: Q01DX009 (ip), vehicle: saline 94 % of control | dose: 100.0 mg/kg/injection, schedule: Q04DX002 (ip), vehicle: saline with Tween-80 99 % of control | dose: 200.0 mg/kg/injection, schedule: Q01DX009 (ip), vehicle: saline 91 % of control | dose: 200.0 mg/kg/injection, schedule: Q04DX002 (ip), vehicle: saline with Tween-80 96 % of control

CCOC(=O)c1c(C)nc(C)c(C(=O)OCC)c1-c1ccc(N(C)C)cc1
inactive: dose: 25.6 mg/kg/injection, schedule: Q04DX002 (ip), vehicle: saline with Tween-80 101 % of control | dose: 64.0 mg/kg/injection, schedule: Q04DX002 (ip), vehicle: saline with Tween-80 97 % of control

CC(=O)[O][Hg][c]1cc(-c2ccc(N=Nc3c(S(=O)(=O)O)cc4cccc(N)c4c3O)cc2)ccc1N=Nc1c(S(=O)(=O)O)cc2cccc(N)c2c1O
inactive: dose: 3.13 mg/kg/injection, schedule: Q01DX009 (ip), vehicle: saline with Tween-80 86 % of control | dose: 6.25 mg/kg/injection, schedule: Q01DX009 (ip), vehicle: saline with Tween-80 86 % of control | [8] 92 % of control

CCNc1nc(Cl)nc(N(CC)CC)n1
inactive: [5] 91 % of control | [6] 98 % of control | [7] 89 % of control

CCCCCC[As](=O)(O)O
inactive: dose: 1.5 mg/kg/injection, schedule: Q01DX001 (ip), vehicle: carboxymethylcellulose (CMC) 98 % of control | dose: 3.0 mg/kg/injection, schedule: Q01DX001 (ip), vehicle: carboxymethylcellulose (CMC) 93 % of control | dose: 6.0 mg/kg/injection, schedule: Q01DX001 (ip), vehicle: carboxymethylcellulose (CMC) 102 % of control

N#CC(c1ccccc1)c1ccc(F)cc1 (stereo not given)
inactive: [1] 104 % of control | dose: 100.0 mg/kg/injection, schedule: Q04DX003 (ip), vehicle: Klucel (hydroxypropylcellulose) (HPC) 100 % of control | [2] 97 % of control | dose: 200.0 mg/kg/injection, schedule: Q04DX003 (ip), vehicle: Klucel (hydroxypropylcellulose) (HPC) 96 % of control | dose: 400.0 mg/kg/injection, schedule: Q01DX009 (ip), vehicle: Klucel (hydroxypropylcellulose) (HPC) 98 % of control | dose: 400.0 mg/kg/injection, schedule: Q04DX003 (ip), vehicle: Klucel (hydroxypropylcellulose) (HPC) 98 % of control

CN(CCO)Cc1ccc2ccccc2c1
inactive: dose: 150.0 mg/kg/injection, schedule: Q01DX015 (ip), vehicle: saline 92 % of control

CCOC(=O)Nc1cc(NCC(O)CN(C)c2ccccc2)c([N+](=O)[O-])c(N)n1 (stereo not given)
inactive: dose: 100.0 mg/kg/injection, schedule: Q01DX001 (ip), vehicle: carboxymethylcellulose (CMC) 95 % of control | dose: 200.0 mg/kg/injection, schedule: Q01DX001 (ip), vehicle: carboxymethylcellulose (CMC) 95 % of control | dose: 400.0 mg/kg/injection, schedule: Q01DX001 (ip), vehicle: carboxymethylcellulose (CMC) 92 % of control

Cc1cccc(C(C)(C)C#N)c1
inactive: [9] 92 % of control | [5] 101 % of control | [6] 90 % of control

Source: PubChem BioAssay AID248 (DTP/NCI, 2004)
